Data reported in patent EP3478687B1 (Daewoong Pharmaceutical Co., Ltd., priority 2016, dated 2018).

Assays:
[1] = molecular target: T1, Recombinant purified human BTK (Homo sapiens, UniProt Q06187); test: BTK kinase inhibitory activity, ADP-Glo kinase assay (Promega V9071); assay type: biochemical; settings: for IC50: ATP 10 uM, 8 ng BTK per reaction, 1 hour 30 °C, chemiluminescence; for inhibition at 0.1 µM: @100nM compound
T1 construct: purchased Promega V9071
How it was run: (§1)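 Recombinant human kinases in Tris pH 7.5 buffer with MgCl2, BSA and DTT (MnCl2 added for BTK), 4 ng JAK3 or 8 ng BTK per reaction. Poly(Glu4,Tyr1) 0.2 µg/µL with 5 µM (JAK3) or 10 µM (BTK) ATP, 1% DMSO, 1 h at 30 °C. ADP-Glo luminescence used to derive IC50.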

[2] = molecular target: T2, Recombinant purified human JAK3 (Homo sapiens, UniProt P52333); test: JAK3 kinase inhibitory activity, ADP-Glo kinase assay (Promega V9441); assay type: biochemical; settings: for IC50: ATP 5 uM, 4 ng JAK3 per reaction, 1 hour 30 °C, chemiluminescence; for inhibition at 0.1 µM: @100nM compound, printed in the JAK3 IC50 column
T2 construct: purchased Promega V9441
T2 sequence (P52333 1-1124): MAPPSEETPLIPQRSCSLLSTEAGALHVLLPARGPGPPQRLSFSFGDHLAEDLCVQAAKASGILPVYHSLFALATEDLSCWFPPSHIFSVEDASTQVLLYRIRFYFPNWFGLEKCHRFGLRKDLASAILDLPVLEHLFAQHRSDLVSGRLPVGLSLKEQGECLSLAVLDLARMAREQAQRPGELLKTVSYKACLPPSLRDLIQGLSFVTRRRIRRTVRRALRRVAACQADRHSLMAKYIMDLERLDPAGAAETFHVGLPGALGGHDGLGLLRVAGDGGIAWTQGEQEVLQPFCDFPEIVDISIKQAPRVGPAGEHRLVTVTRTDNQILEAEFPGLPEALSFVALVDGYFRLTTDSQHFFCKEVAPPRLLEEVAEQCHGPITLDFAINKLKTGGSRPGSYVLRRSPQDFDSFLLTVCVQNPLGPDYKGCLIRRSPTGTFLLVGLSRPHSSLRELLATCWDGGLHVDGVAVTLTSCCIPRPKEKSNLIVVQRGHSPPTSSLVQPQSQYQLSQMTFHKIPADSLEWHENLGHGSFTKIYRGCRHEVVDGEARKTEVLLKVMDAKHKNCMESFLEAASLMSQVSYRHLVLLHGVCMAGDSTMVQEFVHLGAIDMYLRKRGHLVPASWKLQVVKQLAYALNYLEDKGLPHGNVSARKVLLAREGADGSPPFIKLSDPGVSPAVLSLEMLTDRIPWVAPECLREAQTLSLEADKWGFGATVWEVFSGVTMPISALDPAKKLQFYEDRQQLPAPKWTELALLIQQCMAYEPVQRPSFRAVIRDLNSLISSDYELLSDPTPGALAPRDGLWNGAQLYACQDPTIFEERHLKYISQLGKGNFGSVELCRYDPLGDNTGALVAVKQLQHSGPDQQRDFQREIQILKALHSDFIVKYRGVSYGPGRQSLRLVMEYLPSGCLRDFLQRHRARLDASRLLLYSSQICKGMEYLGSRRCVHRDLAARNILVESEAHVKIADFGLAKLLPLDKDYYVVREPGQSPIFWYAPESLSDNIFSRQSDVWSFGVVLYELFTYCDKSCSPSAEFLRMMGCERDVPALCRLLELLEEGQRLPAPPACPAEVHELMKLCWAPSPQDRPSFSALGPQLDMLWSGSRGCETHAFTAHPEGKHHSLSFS
How it was run: as §1

T1 sequence (Q06187 whole entry): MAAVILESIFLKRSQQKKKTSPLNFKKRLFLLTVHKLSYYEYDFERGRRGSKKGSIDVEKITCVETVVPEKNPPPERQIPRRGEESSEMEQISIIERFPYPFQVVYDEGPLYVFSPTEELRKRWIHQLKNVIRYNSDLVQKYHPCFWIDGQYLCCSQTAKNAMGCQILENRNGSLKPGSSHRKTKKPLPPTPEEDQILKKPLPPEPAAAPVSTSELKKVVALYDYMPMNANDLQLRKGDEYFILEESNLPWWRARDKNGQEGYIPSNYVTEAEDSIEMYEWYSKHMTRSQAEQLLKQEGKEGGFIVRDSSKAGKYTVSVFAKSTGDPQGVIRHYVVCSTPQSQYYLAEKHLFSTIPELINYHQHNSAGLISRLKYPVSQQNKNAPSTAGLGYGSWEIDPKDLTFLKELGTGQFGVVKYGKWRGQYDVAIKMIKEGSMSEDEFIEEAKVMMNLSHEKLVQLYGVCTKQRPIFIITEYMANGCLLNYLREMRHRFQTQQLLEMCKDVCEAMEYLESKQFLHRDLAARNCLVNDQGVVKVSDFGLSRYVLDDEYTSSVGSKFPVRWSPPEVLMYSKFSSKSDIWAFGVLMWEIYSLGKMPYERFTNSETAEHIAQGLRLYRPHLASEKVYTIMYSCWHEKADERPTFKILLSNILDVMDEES

Structure (SMILES) | IC50 [1] [nM] | IC50 [2] [nM] | inhibition at 0.1 µM [1] [%] | inhibition at 0.1 µM [2] [%]
C=CC(=O)N1CCC[C@@H](Nc2nc(Nc3ccc(N4CCOCC4)c(F)c3)nc3[nH]cc(Cl)c23)C1 [Example 98, (R)-1-(3-((5-chloro-2-((3-fluoro-4-morpholinophenyl)amino)-7H-pyrrolo [2,3-d]pyrimidin-4-yl)amino)piperidin-1-yl)prop-2-en-1-one] | 14.1 | 2.4 |  | 
C=CC(=O)N1CCC[C@@H](Nc2nc(Nc3cnn(CC)c3)nc3[nH]cc(F)c23)C1 [Example 82, (R)-1-(3-((2-((1-ethyl-1H-pyrazol-4-yl)amino)-5-fluoro-7H-pyrrolo[2,3-d]pyrimidin-4-yl)amino)piperidin-1-yl)prop-2-en-1-one] | 0.9 | 0.3 |  | 
C=CC(=O)N1CCC[C@@H](Nc2nc(Nc3cnn(CC(=O)NC)c3)nc3[nH]nc(Cl)c23)C1 [Example 47, (R)-2-(4-(4-(1-acryloylpiperidin-3-ylamino)-3-chloro-1H-pyrazolo[3,4-d]pyrimidin-6-ylamino)-1H-pyrazol-1-yl)-N-methylacetamide] | 5.2 | 1.1 |  | 
C=CC(=O)N1CCC[C@@H](Nc2nc(Nc3cnn(CC)c3)nc3[nH]cc(C#N)c23)C1 [Example 88, (R)-4-((1-acryloylpiperidin-3-yl)amino)-2-((1-ethyl-1H-pyrazol-4-yl)amino)-7H-pyrrolo [2,3-d] pyrim idine-5-carbonitrile] | 1.1 | 0.2 |  | 
C=CC(=O)N1CCC[C@@H](Nc2nc(Nc3ccc(N4CCCC4)cc3)nc3[nH]ccc23)C1 [Example 5, (R)-1-(3-(2-(4-(pyrrolidin-1-yl)phenylamino)-7H-pyrrolo[2,3-d]pyrimidin-4-ylamino)piperidin-1-yl)prop-2-en-1-one] | 76.7 | 24.6 |  | 
C=CC(=O)N1CCC[C@@H](Nc2nc(Nc3cccc(-n4nc(C)cc4C)c3)nc3[nH]ccc23)C1 [Example 10, (R)-1-(3-(2-(3-(3,5-dimethyl-1H-pyrazol-1-yl)phenylamino)-7H-pyrrolo [2,3-d]pyrimidin-4-ylamino)piperidin-1-yl)prop-2-en-1-one] |  |  | 23.7 | 32.8
C=CC(=O)N1CCC[C@@H](Sc2nc(Nc3cnoc3)nc3[nH]nc(Cl)c23)C1 [Example 116, (R)-1-(3-((3-chloro-6-(isoxazol-4-ylamino)-1H-pyrazolo [3,4-d]pyrimidin-4-yl)thio)piperidin-1-yl)prop-2-en-1-one] | 25.3 | 19.5 |  | 
C=CC(=O)N1CCC[C@@H](Nc2nc(Nc3cc(C)ns3)nc3[nH]ccc23)C1 [Example 75, (R)-1-(3-((2-((3-methylisothiazol-5-yl)amino)-7H-pyrrolo[2,3-d]pyrimidin-4-yl)amino)piperidin-1-yl)prop-2-en-1-one] | 4.1 | 0.2 |  | 
C=CC(=O)N1CCC[C@@H](N(C)c2nc(Nc3cnn(CC)c3)nc3[nH]cc(F)c23)C1 [Example 87, (R)-1-(3-((2-((1-ethyl-1H-pyrazol-4-yl)amino)-5-fluoro-7H-pyrrolo[2,3-d]pyrimidin-4-yl)(methyl)amino)piperidin-1-yl)prop-2-en-1-one] | 42.2 | 16.4 |  | 
C=CC(=O)N1CC[C@@H](C)[C@@H](Nc2nc(Nc3cnn(CC)c3)nc3[nH]cc(F)c23)C1 [Example 84, 1-((3R,4R)-3-((2-((1-ethyl-1H-pyrazol-4-yl)amino)-5-fluoro-7H-pyrrolo[2,3-d]pyrimidin-4-yl)amino)-4-methylpiperidin-1-yl)prop-2-en-1-one] | 6.6 | 3.8 |  | 
C=CC(=O)N1CCC[C@@H](Nc2nc(Nc3cnoc3C)nc3[nH]nc(Cl)c23)C1 [Example 117] | 81.2 | > 400 |  | 
C=CC(=O)N1CCC[C@H](Nc2nc(Nc3ccc(N4CCN(C)CC4)cc3)nc3[nH]ccc23)C1 [Example 11, (S)-1-(3-(2-(4-(4-methylpiperazin-1-yl)phenylamino)-7H-pyrrolo[2,3-d]pyrimidin-4-ylamino)piperidin-1-yl)prop-2-en-1-one] |  |  | 26.5 | 36
C=CC(=O)N1CCC[C@@H](Nc2nc(Nc3cnn(C4CC4)c3)nc3[nH]nc(SC)c23)C1 [Example 129] | 2.3 | 42.3 |  | 
C=CC(=O)N1CCC[C@@H](Nc2nc(Nc3ccc(-n4nc(C)cc4C)cc3)nc3[nH]cc(C)c23)C1 [Example 80, (R)-1-(3-((2-((4-(3,5-dimethyl-1H-pyrazol-1-yl)phenyl)amino)-5-methyl-7H-pyrrolo[2,3-d]pyrimidin-4-yl)amino)piperidin-1-yl)prop-2-en-1-one] | 33.3 | 8.4 |  | 

More lines, now with the values ahead:

IC50 [1] [nM] | IC50 [2] [nM] | inhibition at 0.1 µM [1] [%] | inhibition at 0.1 µM [2] [%] | Structure (SMILES)
3 | 0.4 |  |  | C=CC(=O)N1CCC[C@@H](Oc2nc(Nc3cnn(CC)c3)nc3[nH]ccc23)C1 [Example 151, (R)-1-(3-((2-((1-ethyl-1H-pyrazol-4-yl)amino)-7H-pyrrolo[2,3-d]pyrimidin-4-yl)oay)piperidin-1-yl)prop-2-en-1-one]
306 | 38.5 |  |  | CN1CCN(c2ccc(Nc3nc(N[C@@H]4CCCN(C(=O)C#CC5CC5)C4)c4c(Cl)c[nH]c4n3)cc2)CC1 [Example 141, (R)-1-(3-((5-chloro-2-((4-(4-methylpiperazin-1-yl)phenyl)amino)-7H-pyrrolo [2,3-d]pyrimidin-4-yl)amino)piperidin-1-yl)-3-cyclopropylprop-2-yn-1-one]
1.2 | 0.4 |  |  | CCn1cc(Nc2nc(N[C@@H]3CCCN(C(=O)/C(C#N)=C/C4CC4)C3)c3c(Cl)c[nH]c3n2)cn1 [Example 177, (R,E)-2-(3-((5-chloro-2-((1-ethyl-1H-pyrazol-4-yl)amino)-7H-pyrrolo[2,3-d]pyrimidin-4-yl)amino)piperidine-1-carbonyl)-3-cyclopropylacrylonitrile]
8.3 | 1.1 |  |  | CCn1cc(Nc2nc(S[C@@H]3CCCN(C(=O)/C(C#N)=C/C4CC4)C3)c3c(Cl)c[nH]c3n2)cn1 [Example 179]
1.2 | 2.7 |  |  | CC(C)(C)/C=C(\C#N)C(=O)N1CCC[C@@H](Nc2nc(Nc3cnn(C4CC4)c3)nc3[nH]nc(Cl)c23)C1 [Example 163, (R,E)-2-(3-((3-chloro-6-((1-cyclopropyl-1H-pyrazol-4-yl)amino)-1H-pyrazolo[3,4-d]pyrimidin-4-yl)amino)piperidine-1-carbonyl)-4,4-dimethylpent-2-enenitrile]
1.6 | 0.3 |  |  | C=CC(=O)N1CCC[C@@H](Oc2nc(Nc3cnn(C4CC4)c3)nc3[nH]cc(C#N)c23)C1 [Example 148, (R)-4-((1-acryloylpiperidin-3-yl)oxy)-2-((1-cyclopropyl-1H-pyrazol-4-yl)amino)-7H-pyrrolo[2,3-d]pyrimidine-5-carbonitrile]
210 | 22.4 |  |  | CCC#CC(=O)N1CCC[C@@H](Nc2nc(Nc3ccc(N4CCN(C)CC4)cc3)nc3[nH]cc(Cl)c23)C1 [Example 142, (R)-1-(3-((5-chloro-2-((4-(4-methylpiperazin-1-yl)phenyl)amino)-7H-pyrrolo[2,3-d]pyrimidin-4-yl)amino)piperidin-1-yl)pent-2-yn-1-one]
1.5 | 43.1 |  |  | CCn1cc(Nc2nc(N(C)[C@@H]3CCCN(C(=O)/C(C#N)=C/C4CC4)C3)c3c(Cl)n[nH]c3n2)cn1 [Example 167, (R,E)-2-(3-((3-chloro-6-((1-ethyl-1H-pyrazol-4-yl)amino)-1H-pyrazolo[3,4-d]pyrimidin-4-yl)(methyl)amino)piperidine-1-carbonyl)-3-cyclopropylacrylonitrile]
1.4 | 14.9 |  |  | CCn1cc(Nc2nc(N[C@@H]3CCCN(C(=O)/C(C#N)=C/C4CC4)C3)c3cn[nH]c3n2)cn1 [Example 175, (R,E)-3-cyclopropyl-2-(3-((6-((1-ethyl-1H-pyrazol-4-yl)amino)-1H-pyrazolo[3,4-d]pyrimidin-4-yl)amino)piperidine-1-carbonyl)acrylonitrile]
